These results are taken from US6255317A, “Cholesterol biosynthesis inhibitors” (Hanwha Chemical Corporation, priority 1998, dated 2001).

This test concerns the target T1, sterol 14-reductase (Rattus norvegicus, UniProt A0ACM8Q6X4).
T1 construct: to give a microsome which was used as an enzyme source of sterol 14-reductase; from tissue
T1 sequence (A0ACM8Q6X4 1-418): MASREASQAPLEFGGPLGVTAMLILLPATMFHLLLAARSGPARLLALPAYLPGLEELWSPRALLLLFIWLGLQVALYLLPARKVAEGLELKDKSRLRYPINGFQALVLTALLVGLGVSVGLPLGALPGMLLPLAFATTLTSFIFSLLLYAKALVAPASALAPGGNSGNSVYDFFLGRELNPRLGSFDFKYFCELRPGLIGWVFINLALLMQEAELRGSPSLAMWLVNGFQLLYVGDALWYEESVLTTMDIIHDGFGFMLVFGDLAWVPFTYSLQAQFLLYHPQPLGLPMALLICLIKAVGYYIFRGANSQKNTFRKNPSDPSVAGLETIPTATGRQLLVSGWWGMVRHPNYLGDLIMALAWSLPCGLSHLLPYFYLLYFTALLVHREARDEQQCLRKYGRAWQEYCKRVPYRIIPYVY
The experiment in a line: Sterol 14-reductase assay with rat liver microsomes (substrate 4,4-dimethyl-5α-cholesta-7,14-dien-3β-ol, GLC). The test is classed as biochemical, Sprague-Dawley rats. Background: Liver microsomes are vesicles of endoplasmic reticulum, rich in cytochrome P450 enzymes.

Setting [1] is: read-out: Enzyme Activity (relative in vitro activity for sterol 14-reductase, IC50 class).

Like-named read-outs stand apart in the source and are kept apart here.

Description: First, a screening system for sterol 14-reductase was constructed in which 4,4-dimethyl-5α-cholesta-7,14-dien-3β-ol is used as a substrate and then, the effect on the activity of sterol 14-reductase was investigated in the screening system.
The animals were fasted for 12 hours before excising liver tissues and then sacrificed by decapitation at midnight. An aqueous solution containing 0.25M of sucrose was injected into the hepatic portal vein to remove all the blood within the liver, and then, the liver was excised. The liver was homogenated with two volummes of buffer solution 1 (0.1 M potassium phosphate , 1 mM reduced glutathione, 0.5 mM EDTA, 20% (v/v) glycerol, pH 7.4) by repeating pestles over 10 times and then, centrifuged with 900×g for 5 minutes to give a supernatant. The supernatant was centrifuged with 12,000×g for 20 minutes. The supernatant obtained was ultracentrifuged with 105,000×g for 90 minutes to give a microsome which was used as an enzyme source of sterol 14-reductase. Assay against sterol 14-reductase was carried out as follows: 60 nmol of 4,4-dimethyl-5α-cholesta-7,14-dien-3β-ol and the extract from Corydalis Turtschaninowii Besser dissolved into DMSO were added to an assay mixture (total volume 1.0 ml) containing 2 mg of microsomal protein, 2 mM of NADPH and 25 mg of glucose plus 20 units of glucose oxidase with preincubations under nitrogen at 37° C. for 4 min unless otherwise specified to establish anaerobic condition. Buffer A (0.1M potassium phosphate buffer, pH 7.4, including 1 mM reduced glutathione, 0.5 mM EDTA, and 20% (v/v) glycerol) used for incubation had been equilibrated with nitrogen, and nitrogen was exchanged for air in all sealed reaction flasks prior to the start of incubations. Incubation of the complete mixture was carried out anaerobically in sealed flasks for 10 min at 37° C. unless otherwise indicated. Incubations were terminated by the addition of 1 ml of ethanolic KOH followed by heating under reflux for 10 min. Sterols were extracted four times with 4 ml of petroleum ether, and the solvent was evaporated to dryness under a nitrogen stream. The resulting residue was dissolved in 200-500 μl of n-hexane for quantification by GLC at high sensitive attenuation. The activity of sterol 14-reductase was determined with the amount of the substrate wherein the double bonds of 14-carbon were reduced (for the amount reduced by 1 mg of the microsome protein for 1 minute).

Consider `COc1cc2c(cc1OC)-c1c(C)c3ccc(OC)c(OC)c3c[n+]1CC2`, for which the “inhibition of sterol 14-reductase (in words)” value is recorded as “effectively inhibit”. For the same compound, the IC50 (dissolved in DMSO, read-out: concentration of active ingredient in the assay at which 50% of inhibitory effect was observed (sterol 14-reductase)) is 40000 to 50000 µM.

Consider `COc1ccc2c(C)c3[n+](cc2c1OC)CCc1cc2c(cc1-3)OCO2` [Compound No. 1, 13-Methylberberine], for which the IC50 under setting [1] lay within 10 to 100 µM.

With `COc1ccc2c(C)c3[n+](cc2c1OC)CCc1cc(O)c(O)cc1-3` [Compound No. 2, 2,3-Dihydroxy-13-methylberberine], the IC50 under setting [1] was in the range of 10 to 100 µM.

For `Oc1cc2c(cc1O)-c1cc3ccc(O)c(O)c3c[n+]1CC2` [Compound No. 3, 2,3,9,10-Tetrahydroxyberberine], under setting [1], the IC50 was ≥ 100 µM.

In the case of `Cc1c2[n+](cc3c(O)c(O)ccc13)CCc1cc(O)c(O)cc1-2` [Compound No. 4, 2,3,9,10-Tetrahydroxy-13-methylberberine], the IC50 under setting [1] is 10 to 100 µM.

For the compound `CCc1c2[n+](cc3c(O)c(O)ccc13)CCc1cc(O)c(O)cc1-2` [Compound No. 7, 2,3,9,10-Tetrahydroxy-13-ethylberberine], the IC50 under setting [1] was 10 to 100 µM.

`C=CCc1c2[n+](cc3c(OC)c(OC)ccc13)CCc1cc3c(cc1-2)OCO3` [Compound No. 9, 13-Allylberberine]: the IC50 under setting [1] was ≥ 100 µM.

As for `C=CCc1c2[n+](cc3c(O)c(O)ccc13)CCc1cc(O)c(O)cc1-2` [Compound No. 10, 2,3,9,10-Tetrahydroxy-13-allylberberine], the IC50 under setting [1] is ≥ 100 µM.

As to `CCCc1c2[n+](cc3c(OC)c(OC)ccc13)CCc1cc(OC)c(OC)cc1-2` [Compound No. 11, 13-n-propylpalmatine], the IC50 under setting [1] was in the range of 10 to 100 µM.

With `CCCCc1c2[n+](cc3c(OC)c(OC)ccc13)CCc1cc(OC)c(OC)cc1-2` [Compound No. 12, 13-n-butylpalmatine], the IC50 under setting [1] lay within 10 to 100 µM.

Regarding `COc1cc2c(cc1OC)-c1c(CC3CC3)c3ccc(OC)c(OC)c3c[n+]1CC2` [Compound No. 13, 13-(cyclopropylmethyl)palmatine], under setting [1], the IC50 was ≥ 100 µM.

Take `CCCCCCCCc1c2[n+](cc3c(OC)c(OC)ccc13)CCc1cc(OC)c(OC)cc1-2` [Compound No. 14, 13-n-octylpalmatine]: the IC50 under setting [1] is ≥ 100 µM.

Take `COc1cc2c(cc1OC)-c1c(CC3CCCCC3)c3ccc(OC)c(OC)c3c[n+]1CC2` [Compound No. 15, 13-(cyclohexylmethyl)palmatine]: under setting [1], the IC50 was ≥ 100 µM.

Take `COc1cc2c(cc1OC)-c1c(CCCI)c3ccc(OC)c(OC)c3c[n+]1CC2` [Compound No. 16, 13-Iodopropylpalmatine]: under setting [1], the IC50 is 10 to 100 µM.

With `CCCCOc1cc2c(cc1OCCCC)-c1cc3ccc(OCCCC)c(OCCCC)c3c[n+]1CC2` [Compound No. 17, 2,3,9,10-Tetra-n-butoxyprotoberberine], under setting [1], the IC50 lay within 10 to 100 µM.

On to `COc1cc2c(cc1OC)-c1c(CCC3OCCCO3)c3ccc(OC)c(OC)c3c[n+]1CC2` [Compound No. 18, 13-(1,3-dioxane-2-yl)ethylpalmatine], for which the IC50 under setting [1] was ≥ 100 µM.

With `CCOC(=O)c1c2[n+](cc3c(OC)c(OC)ccc13)CCc1cc(OC)c(OC)cc1-2` [Compound No. 19, 13-Ethoxycrbonylpalmatine], under setting [1], the IC50 was ≥ 100 µM.

For `CCOC(=O)Cc1c2[n+](cc3c(OC)c(OC)ccc13)CCc1cc(OC)c(OC)cc1-2` [Compound No. 20, 13-Ethoxycarbonylmethylpalmatine], the IC50 under setting [1] is ≥ 100 µM.

Consider `COc1cc2c(cc1OC)-c1c(CC(=O)O)c3ccc(OC)c(OC)c3c[n+]1CC2` [Compound No. 21, 13-Carboxymethylpalmatine], for which, under setting [1], the IC50 is ≥ 100 µM.

As to `COC(=O)C(C)c1c2[n+](cc3c(OC)c(OC)ccc13)CCc1cc3c(cc1-2)OCO3` (stereo not drawn) [Compound No. 22, 13-(1-methoxycarbonylethyl)berberine], the IC50 under setting [1] is ≥ 100 µM.

For `COc1ccc2c(C3CCOC3=O)c3[n+](cc2c1OC)CCc1cc2c(cc1-3)OCO2` (stereo not drawn) [Compound No. 23, 13-α-(γ-lactonyl)berberine], under setting [1], the IC50 is ≥ 100 µM.

For the compound `CCOC(=O)Cc1c2[n+](cc3c(OC)c(OC)ccc13)CCc1cc3c(cc1-2)OCO3` [Compound No. 24, 13-Ethoxycarbonylmethylberberine], the IC50 under setting [1] was ≥ 100 µM.

With `CCc1c2[n+](cc3c(NCCO)c(OC)ccc13)CCc1cc(OC)c(OC)cc1-2` [Compound No. 25, 9-Hydroxyethylamino-13-ethylberberine], under setting [1], the IC50 lay within 10 to 100 µM.

Regarding `COc1ccc2c(c1OC)C(CC(C)=O)N1CCc3cc4c(cc3C1=C2)OCO4` (stereo not drawn) [Compound No. 26, 8-Acetonyldihydroberberine], the IC50 under setting [1] was ≥ 100 µM.

On to `COc1ccc2c(c1OC)C(C)N1CCc3cc4c(cc3C1=C2)OCO4` (stereo not drawn) [Compound No. 27, 8-Methyldihydroberberine], for which, under setting [1], the IC50 is ≥ 100 µM.

For the compound `CCC1c2c(ccc(OC)c2OC)C=C2c3cc4c(cc3CCN21)OCO4` (stereo not drawn) [Compound No. 28, 8-Ethyldihydroberberine], the IC50 under setting [1] was ≥ 100 µM.

As for `CCCC1c2c(ccc(OC)c2OC)C=C2c3cc4c(cc3CCN21)OCO4` (stereo not drawn) [Compound No. 29, 8-n-propyldiydroberberine], the IC50 under setting [1] was ≥ 100 µM.

Take `CCCCC1c2c(ccc(OC)c2OC)C=C2c3cc4c(cc3CCN21)OCO4` (stereo not drawn) [Compound No. 30, 8-n-butyldihydroberberine]: the IC50 under setting [1] was ≥ 100 µM.

In the case of `COc1ccc2c(c1OC)C(CC1CCCCC1)N1CCc3cc4c(cc3C1=C2)OCO4` (stereo not drawn) [Compound No. 31, 8-Cyclohexylmethyldihydroberberine], under setting [1], the IC50 was ≥ 100 µM.

Turning to `COc1ccc2c(c1OC)C(C(C)C)N1CCc3cc4c(cc3C1=C2)OCO4` (stereo not drawn) [Compound No. 32, 8-i-propyldihydroberberine], the IC50 under setting [1] is ≥ 100 µM.

For the compound `COc1cc2c(cc1OC)C1=Cc3ccc(OC)c(OC)c3C(C)N1CC2` (stereo not drawn) [Compound No. 33, 8-Methyldihydropalmatine], under setting [1], the IC50 is ≥ 100 µM.

On to `CCC1c2c(ccc(OC)c2OC)C=C2c3cc(OC)c(OC)cc3CCN21` (stereo not drawn) [Compound No. 34, 8-Ethyldihydropalmatine], for which the IC50 under setting [1] was ≥ 100 µM.

`CCCCCCCCC1c2c(ccc(OC)c2OC)C=C2c3cc4c(cc3CCN21)OCO4` (stereo not drawn) [Compound No. 35]: under setting [1], the IC50 is ≥ 100 µM.

Take `COc1ccc2c(c1OC)C(C1CC1)N1CCc3cc4c(cc3C1=C2)OCO4` (stereo not drawn) [Compound No. 36]: under setting [1], the IC50 was ≥ 100 µM.

As for `CCC1=C2c3cc(OC)c(OC)cc3CCN2C(CC(=O)C(C)C)c2c1ccc(OC)c2OC` (stereo not drawn) [Compound No. 39, 8-(3-methylbutan-2-one-1-yl)-13-ethyldihydro palmatine], under setting [1], the IC50 is 10 to 100 µM.

On to `CCC1=C2c3cc(OC)c(OC)cc3CCN2C(CC(=O)CC(C)C)c2c1ccc(OC)c2OC` (stereo not drawn) [Compound No. 40, 8-(4-methylpentan-2-one-1-yl)-13-ethyldihydropalmatine], for which the IC50 under setting [1] was 10 to 100 µM.

For the compound `CCC1=C2c3cc(OC)c(OC)cc3CCN2C(CC#N)c2c1ccc(OC)c2OC` (stereo not drawn) [Compound No. 41, 8-Cyanomethyl-13-ethyldihydropalmatine], the IC50 under setting [1] is ≥ 100 µM.

Take `CCC1=C2c3cc(OC)c(OC)cc3CCN2C(C2CCCC2=O)c2c1ccc(OC)c2OC` (stereo not drawn) [Compound No. 42, 8-(cyclopentanon-2-yl)-13-ethyldihydropalmatine]: the IC50 under setting [1] was ≥ 100 µM.

In the case of `CCC1=C2c3cc(OC)c(OC)cc3CCN2C(C2CCCCC2=O)c2c1ccc(OC)c2OC` (stereo not drawn) [Compound No. 43, 8-(cyclohexanon-2-yl)-13-ethyldihydropalmatine], under setting [1], the IC50 was ≥ 100 µM.

On to `CCOc1cc2c(cc1OCC)C1=C(CC)c3ccc(OCC)c(OCC)c3C(CC(C)=O)N1CC2` (stereo not drawn) [Compound No. 44, 8-Acetonyl-13-ethyl-2,3,9,10-tetraethoxy-dihydroprotoberberine], for which, under setting [1], the IC50 is 10 to 100 µM.

In the case of `CCOc1cc2c(cc1OCC)C1=C(CC)c3ccc(OCC)c(OCC)c3C(CC(=O)C(C)C)N1CC2` (stereo not drawn) [Compound No. 45, 8-(3-methylbutan-2-one-1-yl)-13-ethyl-2,3,9,10-tetra ethoxydihydroprotoberberine], the IC50 under setting [1] lay in the range of 10 to 100 µM.

Take `CCC1=C2c3cc(OC)c(OC)cc3CCN2C(C)c2c1ccc(OC)c2OC` (stereo not drawn) [Compound No. 48, 8-Methyl-13-ethyldihydropalmatine]: the IC50 under setting [1] was ≥ 100 µM.

Turning to `CCC1=C2c3cc(OC)c(OC)cc3CCN2C(CC)c2c1ccc(OC)c2OC` (stereo not drawn) [Compound No. 49, 8-Ethyl-13-ethyldihydropalmatine], the IC50 under setting [1] was ≥ 100 µM.

Take `CCCCC1c2c(ccc(OC)c2OC)C(CC)=C2c3cc(OC)c(OC)cc3CCN21` (stereo not drawn) [Compound No. 50, 8-n-butyl-13-ethyldihydropalmatine]: the IC50 under setting [1] is ≥ 100 µM.
